In paper PMC9820444, “Design and Synthesis of Acridine-Triazole and Acridine-Thiadiazole Derivatives and Their Inhibitory Effect against Cancer Cells” (International Journal of Molecular Sciences, 2022):
Like-named read-outs stand apart in the source and are kept apart here. Marks after values point to notes of the source that are not given here.

Key:
[1] = molecular target: T1, DNA topoisomerase I (topo I) (Bos taurus, UniProt F1MN93); assay: Topo I inhibitory activity (pBR322); format: biochemical; conditions: at 100 µM
T1 construct: purchased Takara Bio Inc. (Shiga, Japan)
T1 sequence (F1MN93 1-767): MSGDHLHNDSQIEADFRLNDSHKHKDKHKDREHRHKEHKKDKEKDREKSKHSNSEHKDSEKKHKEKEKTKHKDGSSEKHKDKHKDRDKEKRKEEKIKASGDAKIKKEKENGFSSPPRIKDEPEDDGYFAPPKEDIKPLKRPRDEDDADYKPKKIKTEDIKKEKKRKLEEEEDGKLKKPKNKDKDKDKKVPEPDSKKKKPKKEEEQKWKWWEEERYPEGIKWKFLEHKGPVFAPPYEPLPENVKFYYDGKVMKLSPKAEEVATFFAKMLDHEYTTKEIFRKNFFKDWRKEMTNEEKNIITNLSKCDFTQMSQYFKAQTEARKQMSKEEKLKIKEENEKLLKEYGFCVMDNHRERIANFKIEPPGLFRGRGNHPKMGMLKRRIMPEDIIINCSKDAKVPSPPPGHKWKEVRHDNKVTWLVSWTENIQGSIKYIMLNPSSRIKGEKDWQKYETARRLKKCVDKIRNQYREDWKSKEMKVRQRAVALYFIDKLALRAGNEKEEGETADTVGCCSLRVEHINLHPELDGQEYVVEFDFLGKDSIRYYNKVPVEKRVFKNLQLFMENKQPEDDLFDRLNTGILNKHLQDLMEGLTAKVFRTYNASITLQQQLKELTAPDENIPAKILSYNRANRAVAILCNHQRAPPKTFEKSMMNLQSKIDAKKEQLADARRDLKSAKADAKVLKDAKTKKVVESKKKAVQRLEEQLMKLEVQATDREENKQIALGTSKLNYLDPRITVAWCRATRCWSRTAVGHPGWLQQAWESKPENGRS

zebrafish embryos = zebrafish embryos 72 hpf
[2] = test system: large cell lung cancer cells (NCI-H460); assay: MTT antiproliferative assay, NCI-H460; format: cell-based, human; conditions: Homo sapiens, read-out: Effect against cell viability (IC50), NCI-H460
[3] = test system: human foreskin fibroblasts (HFF); assay: MTT antiproliferative assay, HFF; format: cell-based; conditions: Homo sapiens, Fibroblast, read-out: Effect against cell viability (IC50), HFF
[4] = test system: bladder cancer cells (T24); assay: MTT antiproliferative assay, T24; format: cell-based, human; conditions: Homo sapiens, read-out: Effect against cell viability (IC50), T24
[5] = test system: human gastric cancer cells-803 (MGC-803); assay: MTT antiproliferative assay, MGC-803; format: cell-based; conditions: Homo sapiens, MGC-803, MTT, read-out: Effect against cell viability (IC50), MGC-803
[6] = test system: subintestinal veins (SIVs) in zebrafish embryos; assay: Zebrafish angiogenesis assay (subintestinal veins, NBT/BCIP staining); format: in vivo; conditions: zebrafish embryos, 1 mg/mL, compared with blank control group

COc1ccc(-c2nnc(N=C3c4ccccc4NC4C=CC(C)=CC34)s2)cc1 (stereo not drawn) [6h, 7-methyl-N-(5-(4-methoxyphenyl)-1,3,4-thiadiazol-2-yl)-10,10a-dihydroacridin-9(8aH)-imine]
topo I inhibitory activity [1]: potent | MAR (malformation rate) (zebrafish embryos; 1 mg/mL): 35% ^b | MOR (mortality rate) (zebrafish embryos; 1 mg/mL): 0% | MAR (malformation rate) (zebrafish embryos; 1.5 mg/mL): 80% ^b | MOR (mortality rate) (zebrafish embryos; 1.5 mg/mL): 0% | MAR (malformation rate) (zebrafish embryos; 2 mg/mL): 65% ^b | MOR (mortality rate) (zebrafish embryos; 2 mg/mL): 15% ^b | IC50 [2]: 13.3 ± 1.39 µM | IC50 [3]: 33.9 ± 1.28 µM | IC50 [4]: 8.93 ± 1.25 µM | IC50 [5]: 6.85 ± 0.84 µM | area of the meshed pattern vessel and number of vascular branches in the network [6]: decreased
